Test systems include SNB-78; DMS-114; DMS-273; DLD-1; XF498; KM-20L2; M19-MEL; HOP-18; RXF 631.
Experiment in all cases: NCI-60 cell line screen, 48 h

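Results reflect a 48-hour exposure of cells in 96-well plates to compound at five concentrations. The concentration for 50% growth inhibition is given as GI50.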 Active and inactive are the calls of the source. Cut-off read from the data, not from the text of the source: active = GI50 up to about 1.1 µM and inactive = higher.

Take `COc1cccc2c1C(=O)c1c(O)c3c(c(O)c1C2=O)C[C@@](O)(C(C)O)C[C@@H]3OC1CC(N)C(O)C(C)O1` (some centres undefined): the GI50 in the experiment with SNB-78 was 1880 nM (inactive); with DMS-114, 163 nM (active); with DMS-273, 569 nM (active); in the experiment with DLD-1, 2990 nM (inactive); with XF498 it was 614 nM (active); in the experiment on KM-20L2 it was 3240 nM (inactive). In addition, the GI50 was 1160 nM (inactive) in the experiment on M19-MEL, 4.97 nM (active) in the experiment with HOP-18 and 2000 nM (inactive) in the experiment with RXF 631.

Source of the values: ChEMBL document CHEMBL1201862, “PubChem BioAssay data set” (2004).
